Results on one molecule are retold here after patent publication US7671061B2, “Methods and compositions for treating pain” (Hydra Biosciences, Inc., priority 2005, dated 2010).

For data set [1], the target named is T1, hTRPA1 (Homo sapiens, UniProt O75762, K186N).
T1 construct: expressed in transfected cells; host or cells: HEK293/TREx (Invitrogen), induced with tetracycline
Description: TRPA1 patch clamp (perforated patch, AITC-activated current). Type of data set: cell-based. An outline of the steps: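 HEK293 TREx cells expressing the channel were recorded by amphotericin perforated patch at −40 mV holding, with 400 ms ramps from −120 to +100 mV every 5 s. Current was activated with 5 μM AITC in pH 7.4 external solution, and block of inward and outward current was measured at −80 and +80 mV with AITC still present.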
(In general: In patch-clamp work, channel activity is measured electrically.)

The target in data set [2] is T1, hTRPA1. The data set can be described thus: High throughput Ca2+ fluorescence (Fluo4) assay, AITC stimulation. Type of data set: cell-based. Particulars: Table 2; read-out: hTRPA1 Fluor IC50. An outline of the steps: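 Tetracycline-induced HEK293/TREx cells loaded with 1 μM Fluo4/AM for 60 min at room temperature. Compound added for 2 min after a 4-frame baseline, then AITC; fluorescence followed ~3 min.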

The target of the next data set is hNaV1.2 (Homo sapiens, UniProt Q99250). The data set can be described thus: hNaV1.2 patch clamp (Qpatch) selectivity. It counts as cell-based. Particulars: Table 2.
Sequence of hNaV1.2 (Q99250 whole entry): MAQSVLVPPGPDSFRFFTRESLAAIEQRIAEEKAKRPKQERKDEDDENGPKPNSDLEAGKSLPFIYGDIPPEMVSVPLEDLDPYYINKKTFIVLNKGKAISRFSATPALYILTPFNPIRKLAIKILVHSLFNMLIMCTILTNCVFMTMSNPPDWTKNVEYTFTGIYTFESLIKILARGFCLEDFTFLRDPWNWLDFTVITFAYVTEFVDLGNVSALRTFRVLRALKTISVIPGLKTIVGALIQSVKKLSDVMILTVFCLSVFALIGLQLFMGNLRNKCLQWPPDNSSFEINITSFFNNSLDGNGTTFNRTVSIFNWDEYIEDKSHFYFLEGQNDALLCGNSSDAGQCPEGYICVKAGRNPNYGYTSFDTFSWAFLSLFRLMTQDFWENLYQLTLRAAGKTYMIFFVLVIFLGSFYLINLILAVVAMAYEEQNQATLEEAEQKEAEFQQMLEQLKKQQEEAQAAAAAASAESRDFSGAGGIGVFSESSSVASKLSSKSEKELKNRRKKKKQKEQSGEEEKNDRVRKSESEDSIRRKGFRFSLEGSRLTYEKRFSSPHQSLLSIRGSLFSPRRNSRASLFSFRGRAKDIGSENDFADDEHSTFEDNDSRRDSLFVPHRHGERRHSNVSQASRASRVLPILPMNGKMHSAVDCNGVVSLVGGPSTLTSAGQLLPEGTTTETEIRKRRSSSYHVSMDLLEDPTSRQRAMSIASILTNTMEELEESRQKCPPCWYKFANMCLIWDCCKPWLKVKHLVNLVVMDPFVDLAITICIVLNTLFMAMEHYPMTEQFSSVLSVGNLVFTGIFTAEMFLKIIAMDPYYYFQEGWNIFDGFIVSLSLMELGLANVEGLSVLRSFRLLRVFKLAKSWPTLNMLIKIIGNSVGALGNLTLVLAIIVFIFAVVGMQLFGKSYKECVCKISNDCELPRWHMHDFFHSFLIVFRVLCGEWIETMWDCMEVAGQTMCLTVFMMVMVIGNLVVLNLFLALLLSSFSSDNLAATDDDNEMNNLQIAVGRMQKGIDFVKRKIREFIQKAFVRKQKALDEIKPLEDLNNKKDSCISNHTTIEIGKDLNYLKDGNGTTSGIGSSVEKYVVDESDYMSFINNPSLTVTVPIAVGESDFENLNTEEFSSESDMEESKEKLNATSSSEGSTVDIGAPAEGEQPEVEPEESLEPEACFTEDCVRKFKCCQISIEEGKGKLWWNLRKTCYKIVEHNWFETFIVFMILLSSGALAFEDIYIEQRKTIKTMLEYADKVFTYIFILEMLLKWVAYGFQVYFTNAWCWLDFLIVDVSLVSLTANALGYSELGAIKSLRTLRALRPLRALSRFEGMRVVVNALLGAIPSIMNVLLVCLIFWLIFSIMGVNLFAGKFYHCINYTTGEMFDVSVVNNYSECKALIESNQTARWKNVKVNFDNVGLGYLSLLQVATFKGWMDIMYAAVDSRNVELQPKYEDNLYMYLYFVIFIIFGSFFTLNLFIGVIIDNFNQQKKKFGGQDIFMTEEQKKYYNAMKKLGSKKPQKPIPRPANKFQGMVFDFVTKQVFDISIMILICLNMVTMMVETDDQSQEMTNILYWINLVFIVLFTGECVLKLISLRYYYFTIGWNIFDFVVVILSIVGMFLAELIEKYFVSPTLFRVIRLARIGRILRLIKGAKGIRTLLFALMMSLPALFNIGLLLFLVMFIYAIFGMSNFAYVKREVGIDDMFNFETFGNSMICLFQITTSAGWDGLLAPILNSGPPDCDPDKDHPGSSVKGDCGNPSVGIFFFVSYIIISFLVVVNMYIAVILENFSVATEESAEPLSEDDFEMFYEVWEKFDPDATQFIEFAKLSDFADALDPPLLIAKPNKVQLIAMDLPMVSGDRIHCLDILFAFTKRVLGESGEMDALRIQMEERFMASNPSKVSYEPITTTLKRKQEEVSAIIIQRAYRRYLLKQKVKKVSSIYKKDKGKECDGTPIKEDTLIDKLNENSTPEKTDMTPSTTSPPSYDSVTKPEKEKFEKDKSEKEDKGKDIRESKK
The next data set concerns formalin model. The data set can be described thus: Formalin model of pain. Particulars: both Early Phase and Late Phase, drug 15 min before formalin. It counts as in vivo, rat. As for the experimental part: As outlined above, the formalin model involves injection of a formalin solution intradermally or […]. Injection of formalin solution invokes a biphasic response, and thus provides a model for both nociceptive and inflammatory pain. The formalin model can be used to evaluate the effectiveness of an exemplary TRPA1 inhibitor in the treatment of pain. […] Briefly, the following protocol was followed. Male Holtzmann rats received intraplantar injections of 50 μL of 2% formalin. Paw flinching was detected by an automated sensor detecting movement of a small metal band placed on the injected hind paw. Drug or vehicle was administered approximately 15 minutes prior to the injection of formalin. The animal's response to injection of the irritant was measured by counting flinches per minutes during the Early Phase (the first 5 minutes following injection of formalin), during the Late Phase (approximately 30 minutes after injection of formalin), and during the intervening pain free phase. In FIG. 2, the right most bar for each data set (Early Phase and Late Phase) represents administration of vehicle alone and the left most bar represents administration of gabapentin. […]

Data set [3] has as its system CFA model of inflammatory pain. Description: CFA model of inflammatory pain. As for the experimental part: FIG. 4 summarizes data obtained following testing of Compound 200 in the CFA model. Naive rats were pretested for sensitivity to a heat stimulus in the Hargreaves apparatus. The next day, 100 μL of complete Freund's adjuvant (CFA) was injected into the plantar surface of the right hindpaw. Two days later, in the morning, the rats were again pretested. In the afternoon, rats were injected with either vehicle control or with drug (TRPA1 inhibitor 200 or the non-steroidal anti-inflammatory diclofenac). Drugs or vehicle were injected intraperitoneally, and 45 minutes later rats were tested for hyperalgesia by applying the heat source to the CFA injected and uninjected hindpaw and measuring latency to withdrawal.

The next data set deals with hERG (Homo sapiens, UniProt Q12809). The data set can be described thus: hERG patch clamp (Qpatch) selectivity. The following applies: hERG IC50 (nM), Table 2. Background: Block of hERG is tested as a sign of cardiac risk.
Sequence of hERG (Q12809 whole entry): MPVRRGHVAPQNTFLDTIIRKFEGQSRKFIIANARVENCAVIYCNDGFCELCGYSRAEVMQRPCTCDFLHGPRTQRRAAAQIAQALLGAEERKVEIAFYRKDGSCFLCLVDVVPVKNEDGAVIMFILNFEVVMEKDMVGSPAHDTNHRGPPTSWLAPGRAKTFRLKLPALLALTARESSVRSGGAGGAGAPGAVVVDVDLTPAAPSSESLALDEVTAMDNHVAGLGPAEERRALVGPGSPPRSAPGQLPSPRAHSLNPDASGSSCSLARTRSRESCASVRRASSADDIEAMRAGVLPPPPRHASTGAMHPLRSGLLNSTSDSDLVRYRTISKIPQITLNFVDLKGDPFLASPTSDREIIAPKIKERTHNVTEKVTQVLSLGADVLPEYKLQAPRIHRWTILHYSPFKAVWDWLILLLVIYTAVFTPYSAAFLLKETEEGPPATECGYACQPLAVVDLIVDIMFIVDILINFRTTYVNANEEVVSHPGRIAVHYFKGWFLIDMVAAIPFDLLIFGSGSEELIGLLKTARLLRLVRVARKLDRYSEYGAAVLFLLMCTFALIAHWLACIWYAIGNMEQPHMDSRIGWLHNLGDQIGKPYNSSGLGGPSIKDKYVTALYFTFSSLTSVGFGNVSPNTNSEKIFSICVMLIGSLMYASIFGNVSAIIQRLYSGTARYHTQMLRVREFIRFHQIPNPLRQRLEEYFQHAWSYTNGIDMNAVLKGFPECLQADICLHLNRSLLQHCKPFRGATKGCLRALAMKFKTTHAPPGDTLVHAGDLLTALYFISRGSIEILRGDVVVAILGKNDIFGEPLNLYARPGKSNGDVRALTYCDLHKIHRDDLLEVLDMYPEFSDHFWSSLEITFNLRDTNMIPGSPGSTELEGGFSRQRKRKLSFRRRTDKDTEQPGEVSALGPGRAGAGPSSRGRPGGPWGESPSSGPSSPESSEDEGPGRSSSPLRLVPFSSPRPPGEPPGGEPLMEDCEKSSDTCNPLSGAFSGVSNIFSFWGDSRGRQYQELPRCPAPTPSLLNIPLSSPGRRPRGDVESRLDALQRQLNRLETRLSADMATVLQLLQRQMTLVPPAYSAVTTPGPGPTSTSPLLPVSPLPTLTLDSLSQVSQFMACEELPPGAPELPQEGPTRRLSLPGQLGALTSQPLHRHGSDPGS

Usually IC50 stands for the midpoint of a concentration-inhibition curve.

T1 sequence (O75762 whole entry K186N): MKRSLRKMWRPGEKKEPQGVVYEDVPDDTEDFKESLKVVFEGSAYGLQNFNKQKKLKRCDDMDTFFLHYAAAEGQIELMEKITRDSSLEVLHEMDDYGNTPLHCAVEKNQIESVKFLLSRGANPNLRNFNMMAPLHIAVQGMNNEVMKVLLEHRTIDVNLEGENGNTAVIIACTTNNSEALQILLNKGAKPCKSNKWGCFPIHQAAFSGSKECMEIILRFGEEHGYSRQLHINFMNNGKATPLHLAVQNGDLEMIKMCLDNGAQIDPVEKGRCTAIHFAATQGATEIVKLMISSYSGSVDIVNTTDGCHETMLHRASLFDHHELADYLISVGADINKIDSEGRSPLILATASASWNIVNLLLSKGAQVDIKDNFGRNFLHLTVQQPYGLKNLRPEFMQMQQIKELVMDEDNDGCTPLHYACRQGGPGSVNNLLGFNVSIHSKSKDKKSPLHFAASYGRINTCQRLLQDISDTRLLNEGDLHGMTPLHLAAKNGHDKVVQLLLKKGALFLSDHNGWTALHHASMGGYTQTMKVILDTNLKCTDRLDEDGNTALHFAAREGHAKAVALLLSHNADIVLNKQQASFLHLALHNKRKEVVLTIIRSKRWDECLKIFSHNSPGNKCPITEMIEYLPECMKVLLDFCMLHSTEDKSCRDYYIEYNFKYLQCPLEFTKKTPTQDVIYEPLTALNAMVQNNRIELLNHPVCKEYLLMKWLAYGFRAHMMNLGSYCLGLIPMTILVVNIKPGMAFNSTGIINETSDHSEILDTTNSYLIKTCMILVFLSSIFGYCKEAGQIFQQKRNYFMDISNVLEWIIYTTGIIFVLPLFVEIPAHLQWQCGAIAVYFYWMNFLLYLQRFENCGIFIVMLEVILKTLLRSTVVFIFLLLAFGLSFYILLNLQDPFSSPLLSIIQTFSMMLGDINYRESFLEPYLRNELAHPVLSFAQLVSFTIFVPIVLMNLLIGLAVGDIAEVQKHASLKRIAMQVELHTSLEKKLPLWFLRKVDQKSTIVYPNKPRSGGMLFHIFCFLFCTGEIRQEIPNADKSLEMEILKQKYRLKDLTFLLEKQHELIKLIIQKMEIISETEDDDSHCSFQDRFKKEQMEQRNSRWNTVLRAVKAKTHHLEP

As for `CC(C)c1ccc(NC(=O)Cn2cnc3c2c(=O)n(C)c(=O)n3C)cc1` [Compound 200, 2-(1,3-dimethyl-2,6-dioxo-1,2,3,6-tetrahydropurin-7-yl)-N-(4-isopropylphenyl)acetamide], the IC50 at hTRPA1 [1] (Table 2, inward current, read-out: hTRPA1 Patch Inwd IC50) was at most 5 µM; at hTRPA1 [1] (stated in Example 4 (1000 nM=355 ng/mL), read-out: IC50 against TRPA1), 1 µM; on hTRPA1 [2] it was at most 5 µM; at hNaV1.2 (read-out: hNaV1.2 IC50) it was at least 30 µM; against hERG, at least 20000 nM. In addition, the “selective for TRPA1 over NaV1.2” value on hNaV1.2 is on record as at least 25 fold. Besides, the flinches per minute entry in the data set with formalin model was “substantially reduced”. The “efficacy compared with diclofenac” value in data set [3] (IP) is “superior to diclofenac”. Besides, in data set [3] (IP, 45 minutes before test, CFA injected paw), the thermal hyperalgesia entry is listed as “reduced”. Further, the toxicity result in data set [3] (rat, in vivo, ip) is recorded as “without toxicity”. Also, in data set [3] (uninjected hindpaw), the “control paw (uninflamed) sensation” value is on record as “not affected”.
